Peptide text beside a SMILES is read from it. * marks the point of attachment. Cbz = O=C(OCc1ccccc1)*
Experiments:
[1] = tested on: proteasome; assay: Proteasome inhibition after NQO1 siRNA knockdown in T24 cells, Western blot; format: cell-based, human; details: NQO1 siRNA 24 h then MG-132 6 h, FIG. 6C
Method: Cell culture and Western blots. Cells were cultured in appropriate media (DMEM+1% p/s+10% FBS) and subcultured as necessary. Tissue homogenates were prepared by removing whole bladders from freshly-sacrificed mice killed with isoflurane inhalation and lysing tissue as a 10% homogenate in ice-cold RIPA buffer (50 mM Tris-Cl, pH 7.4, 150 mM NaCl, 1% NP-40, 1 mM EDTA, 0.5% Na Deoxycholate, and 1% Triton X100 with 1 mM PMSF and 1× Protease Inhibitor Cocktail (Complete, Roche)) using glass and Teflon pestle system, and further clarified via centrifugation at 14000 rpm at 4 degrees for 10 minutes. Homogenates were stored at −80° C. until use. Western blotting was performed essentially according to Towbin H, T. Staehelin, J. Gordon, “Electrophoretic transfer of proteins from polyacrylamide gels to nitrocellulose sheets: procedure and some applications,” Proc Natl Acad Sci USA, v76, pp 4350-4354, 1979.
(§1) FIG. 6A through FIG. 6E are Western blot images that illustrate example NQO1 regulation of energy metabolic regulator factor PGC1α in a bladder of a mouse model for PBS compared to wild-type mouse, according to an embodiment. FIG. 6A is a set of Western blot images that illustrate example relative occurrence of proteins in bladders from wild type mice (left) and NQO1−/− mice (right). Bladders from wild type and NQO1−/− mice were immunoblotted and probed with antibodies as indicated: for NQO1 in blot image 601; for AMPK in blot image 603; for CREB in blot image 605; and, for control GAPDH in blot image 607. FIG. 6B is a set of Western blot images that illustrate example relative occurrence of proteins in T24 human bladder carcinoma cells transfected with control (column C, 100 nM control siRNA) or NQO1-specific siRNA (columns 10, 50 and 150 nM NQO1 siRNA) for 24 h and then immunoblotted with indicated antibodies: for NQO1 in blot image 611; for CREB in blot image 613; for AMPK in blot image 615; for PGC1α in blot image 617; and, for control GAPDH in blot image 619. […]

[2] = tested on: wild-type and NQO1−/− bladder cells; assay: Ex vivo bladder cell culture, B[α]P-induced ROS (DCF fluorescence); format: cell-based, mouse
Method: Ex-vivo cell culture and chemical treatment. Whole bladders from age-matched female wild-type and NQO1−/− 24 weeks-old mice were excised from euthanized mice and minced in a 10 cm dish with a razorblade. Pieces were suspended in microfuge tubes containing 500 microliters of 1% […] reconstituted in PBS and incubated at 37 degrees with 700 rpm shaking for 45 minutes to dissociate cells from tissue. Tubes were centrifuged at 500 g for 3 minutes to pellet cells, and resuspended in full cell culture media. Cells were plated in 8-well tissue culture chamber slides (e.g., from LAB-TEK™) with cells from one bladder equally divided into one 8-well slide, into 1 mL media total volume. After 2-4 days of growth with daily media changes, cells were treated with various concentrations of benzopyrene dissolved in acetone, or acetone control in fresh media for 18 h, followed by removal and addition of DCF (SIGMA ALDRICH™) at 5 micromolar for 1 h. DCF was then removed and full media added for 1 h, followed by immediate mounting of cover slips in VectaShield (VECTOR LABS™ of Burlingame, Calif.) and viewing under FITC-viewing filter to determine fluorescence of ROS-modified DCF within cells. […]

[3] = tested on: NQO1 and 20S proteasome interaction with CREB and AMPK in T24; assay: Immunoprecipitation of CREB and AMPK from T24 cells incubated with B[α]P; format: cell-based, human; details: B[α]P 0, 10 and 100 nM, 16 h
Method: Immunoprecipitation. Human bladder carcinoma T24 cell line was cultured in DMEM+10% FBS+1% p/s at 37 degrees in 5% carbon dioxide before IP studies. Cells were incubated with chemicals as necessary and washed 3× in PBS on ice. Cells were scraped into microfuge tubes using RIPA buffer and protein A/G beads (SANTA CRUZ BIOTECH™ of Santa Cruz, Calif.) were equilibrated with 1 mg aliquots for 1 h. After equilibration, beads were removed and lysates were incubated o/n with 1:100 of relevant antibodies, and next day incubated with 30 microliters A/G beads for 1 h before 3× RIPA buffer wash and boiling 5 mins.
as §1, with “619. FIG. 6C is a set of Western blot images that illustrate example relative occurrence of proteins in T24 human bladder carcinoma cells transfected with control (column C, 100 nM control siRNA) or NQO1-specific siRNA (columns 50 and 100 nM NQO1 siRNA) for 24 h and then incubated for 6 h with vehicle (signified by -) or proteasome inhibitor MG-132 (signified by +) before lysis and separation via SDS-PAGE. The samples were probed with the antibodies indicated: for NQO1 in blot image 621; for CREB in blot image 623; for AMPK in blot image 625; for PGC1α in blot image 627; and, for control GAPDH in blot image 629. FIG. 6D and FIG. 6E are sets of Western blot images that illustrate example relative occurrence of proteins in T24 cells that were incubated for 16 h with B[α]P at concentrations of 0, 10 and 100 nanoMoles (nM, 1 nM=10^−9 Moles) and then immunoprecipitated with antibodies against CREB (in FIG. 6D) and AMPK (in FIG. 6E) overnight. IgG was used as immunoprecipitation control.” for “619.”

Compound	rescue of AMPK protein from down regulation [1]	rescue of CREB protein from down regulation [1]	rescue of PGC1α protein from down regulation [1]	stress signaling (count of ROS-positive, DCF-positive cells normalized to wild-type) ([2]; 100 μM B[α]P, 18 h, cells from 24 week-old female mice, NQO1−/− vs wild-type, P<0.05, FIG. 3C)	susceptibility to B[α]P-induced generation of reactive oxygen species (ROS) ([2]; NQO1−/− bladder cells relative to wild-type bladder cells, ex vivo)	20S proteasome interaction with CREB ([3]; FIG. 6D)	NQO1 interaction with CREB ([3]; FIG. 6D)	20S proteasome interaction with AMPK ([3]; FIG. 6E)	NQO1 interaction with AMPK ([3]; FIG. 6E)
CC(C)C[C@@H](C=O)NC(=O)[C@H](CC(C)C)NC(=O)[C@H](CC(C)C)NC(=O)OCc1ccccc1 [MG-132] (Cbz-Leu-Leu-Leu-aldehyde)	rescued from down regulation	rescued from down regulation	not PGC1α proteins were rescued from down regulation	–	–	–	–	–	–
benzo[α]pyrene [B[α]P]	–	–	–	significantly stronger stress than does wild-type	markedly increased susceptibility	more or less did not change	appears to be increased during stress conditions	more or less did not change	appears to be increased during stress conditions
